Results as given in patent US20200305481A1, “STEVIOL GLYCOSIDE COMPOSITIONS FOR ORAL INGESTION OR USE” (CARGILL, INCORPORATED, priority 2015, published 2020).
Entries after “also recorded” stand apart in the source; their conditions may differ.

How the values were obtained:
[1] = Sensory testing of steviol glycoside samples dissolved in water; assay type: in vivo; conditions: for Sensory Comments: about 300 ppm sample in reverse osmosis water, 2-3 mL tasted by two to three experienced tasters; for sweetness in water compared with Reb M in water: in reverse osmosis water, experienced tasters
Method: Steviol glycoside samples (SG201, SG203, and SG204) were isolated and purified from fermentation broth, purified Reb A and B are of leaf origin, and Reb M is chemically synthesized. All samples were dissolved in reverse osmosis water at the concentrations indicated. Approximately 2-3 milliliters of each solution was tasted and sensory evaluations conducted by two to three experienced tasters.

[2] = cited from earlier work; for taste properties in words: background statements, literature sensory evaluation
[3] = water at room temperature / beverage formulations; cited from earlier work

Row | SMILES | Sensory Comments [1] | sweetness in water compared with Reb M in water [1] | taste properties in words [2] | times sweeter than sucrose ([2]; relative to sucrose (sugar)) | aqueous solubility in words [3]
1 | C=C1C[C@@]23CCC4[C@](C)(C(=O)OC5OC(CO)C(O)C(OC6OC(CO)C(O)C(O)C6O)C5OC5OC(CO)C(O)C(O)C5O)CCC[C@@]4(C)[C@@H]2CCC1(OC1OC(CO)C(O)C(O)C1O)C3 (stereo partly drawn) [SG201] | not sweet, meaty, brothy,; also recorded: strecker, methional | do not exhibit sweetness similar to Reb M | – | – | –
2 | C=C1C[C@@]23CC[C@H]4[C@@](C)(CCC[C@@]4(C)C(=O)O[C@@H]4O[C@H](CO)[C@@H](O)[C@H](O)[C@H]4O[C@@H]4O[C@H](CO)[C@@H](O)[C@H](O)[C@H]4O)[C@@H]2CC[C@]1(O[C@@H]1O[C@H](CO)[C@@H](O)[C@H](O[C@@H]2O[C@H](CO)[C@@H](O)[C@H](O)[C@H]2O)[C@H]1O[C@@H]1O[C@H](CO)[C@@H](O)[C@H](O)[C@H]1O)C3 [Reb D, rebaudioside D] | less bitter; also recorded: better sweetness, | – | slow onset of sweetness and was very clean | 200-220 times | low solubility in water at room temperature
3 | C=C1C[C@@]23CCC4[C@](C)(C(=O)OC5OC(CO)C(O)C(O)C5OC5OC(CO)C(O)C(O)C5O)CCC[C@@]4(C)[C@@H]2CCC1(OC1OC(COC2OC(CO)C(O)C(O)C2O)C(O)C(O)C1OC1OC(CO)C(O)C(O)C1O)C3 (stereo partly drawn) [SG203] | not sweet, meaty, brothy,; also recorded: strecker, methional | do not exhibit sweetness similar to Reb M | – | – | –
4 | C=C1C[C@@]23CC[C@H]4[C@@](C)(CCC[C@@]4(C)C(=O)O[C@@H]4O[C@H](CO)[C@@H](O)[C@H](O)[C@H]4O)[C@@H]2CC[C@]1(O[C@@H]1O[C@H](CO)[C@@H](O)[C@H](O[C@@H]2O[C@H](CO)[C@@H](O)[C@H](O)[C@H]2O)[C@H]1O[C@@H]1O[C@H](CO)[C@@H](O)[C@H](O)[C@H]1O)C3 [Reb A, rebaudioside A] | some sweet, bitter | – | off-taste issues | – | –
5 | C=C1C[C@@]23CC[C@H]4[C@@](C)(CCC[C@@]4(C)C(=O)O[C@@H]4O[C@H](CO)[C@@H](O)[C@H](O[C@@H]5O[C@H](CO)[C@@H](O)[C@H](O)[C@H]5O)[C@H]4O[C@@H]4O[C@H](CO)[C@@H](O)[C@H](O)[C@H]4O)[C@@H]2CC[C@]1(O[C@@H]1O[C@H](CO)[C@@H](O)[C@H](O[C@@H]2O[C@H](CO)[C@@H](O)[C@H](O)[C@H]2O)[C@H]1O[C@@H]1O[C@H](CO)[C@@H](O)[C@H](O)[C@H]1O)C3 [Reb M, rebaudioside M] | good sweetness, almost; also recorded: sucrose-like sensation; also recorded: in mouth | – | higher sweetness intensity and is more potent than other steviol glycosides | – | poor aqueous solubility and dissolution qualities
6 | C=C1C[C@@]23CCC4[C@](C)(C(=O)OC5OC(CO)C(O)C(O)C5OC5OC(CO)C(O)C(O)C5NC(C)=O)CCC[C@@]4(C)[C@@H]2CCC1(OC1OC(CO)C(O)C(OC2OC(CO)C(O)C(O)C2O)C1OC1OC(CO)C(O)C(O)C1O)C3 (stereo partly drawn) [SG204] | bitter, not very sweet | do not exhibit sweetness similar to Reb M | – | – | –
